Laboratory results taken from patent publication US10711041B2, “Lyophilisate containing a cyclic peptide of formula X1-[sequence]-X2” (priority 2013, dated 2020).
“Also recorded” adds a separate entry of the source. Bridges are numbered along the chain shown (N, C = ends). Where no end group is shown, it is not given here.

Legend:
[1] = molecular target: T1, amilorid-sensitive Sodium Ion Channel (ENaC) (Homo sapiens, UniProt P37088); test: Patch-clamp whole cell, amilorid-sensitive sodium ion current in A549 cells; type: cell-based
T1 construct: Macroscopic Sodium Ion Currents were derived from human lung epithelian cells A549; endogenous in cells; host or cells: A549 human lung epithelial cells
T1 sequence (P37088 1-669): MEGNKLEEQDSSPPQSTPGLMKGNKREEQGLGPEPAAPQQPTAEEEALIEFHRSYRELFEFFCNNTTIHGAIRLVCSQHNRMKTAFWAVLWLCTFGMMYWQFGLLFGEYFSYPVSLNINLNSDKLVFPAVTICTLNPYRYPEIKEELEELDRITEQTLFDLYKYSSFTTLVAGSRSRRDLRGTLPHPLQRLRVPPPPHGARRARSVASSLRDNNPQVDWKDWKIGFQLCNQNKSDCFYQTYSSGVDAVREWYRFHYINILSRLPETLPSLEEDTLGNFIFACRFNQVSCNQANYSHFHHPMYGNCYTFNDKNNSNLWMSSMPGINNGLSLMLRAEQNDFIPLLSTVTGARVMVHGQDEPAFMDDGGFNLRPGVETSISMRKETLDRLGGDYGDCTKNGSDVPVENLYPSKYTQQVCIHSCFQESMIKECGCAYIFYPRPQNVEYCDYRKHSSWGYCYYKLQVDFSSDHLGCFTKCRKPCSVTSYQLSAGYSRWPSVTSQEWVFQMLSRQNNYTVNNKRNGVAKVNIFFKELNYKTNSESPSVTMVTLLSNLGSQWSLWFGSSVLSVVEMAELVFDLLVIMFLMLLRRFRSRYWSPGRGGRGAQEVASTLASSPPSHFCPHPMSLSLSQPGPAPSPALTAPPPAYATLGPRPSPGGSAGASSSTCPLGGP
T1 sequence (P51168 1-640 partner): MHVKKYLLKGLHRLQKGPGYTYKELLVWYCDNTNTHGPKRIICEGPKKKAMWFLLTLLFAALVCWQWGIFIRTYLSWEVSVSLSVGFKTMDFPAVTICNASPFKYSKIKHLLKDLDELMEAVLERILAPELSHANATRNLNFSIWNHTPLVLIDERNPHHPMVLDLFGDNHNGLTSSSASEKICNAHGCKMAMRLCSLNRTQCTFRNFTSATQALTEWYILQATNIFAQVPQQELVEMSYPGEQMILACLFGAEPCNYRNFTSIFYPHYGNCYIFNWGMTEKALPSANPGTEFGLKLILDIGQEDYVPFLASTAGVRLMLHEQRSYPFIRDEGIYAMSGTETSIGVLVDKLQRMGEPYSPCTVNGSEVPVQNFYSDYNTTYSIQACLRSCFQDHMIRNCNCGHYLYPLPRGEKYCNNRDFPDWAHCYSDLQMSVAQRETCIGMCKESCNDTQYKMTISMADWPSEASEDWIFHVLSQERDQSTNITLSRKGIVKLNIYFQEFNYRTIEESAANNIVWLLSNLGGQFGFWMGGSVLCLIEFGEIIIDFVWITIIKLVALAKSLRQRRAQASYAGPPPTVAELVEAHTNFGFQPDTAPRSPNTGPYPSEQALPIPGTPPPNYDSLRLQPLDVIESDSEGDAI
T1 sequence (P51170 1-649 partner): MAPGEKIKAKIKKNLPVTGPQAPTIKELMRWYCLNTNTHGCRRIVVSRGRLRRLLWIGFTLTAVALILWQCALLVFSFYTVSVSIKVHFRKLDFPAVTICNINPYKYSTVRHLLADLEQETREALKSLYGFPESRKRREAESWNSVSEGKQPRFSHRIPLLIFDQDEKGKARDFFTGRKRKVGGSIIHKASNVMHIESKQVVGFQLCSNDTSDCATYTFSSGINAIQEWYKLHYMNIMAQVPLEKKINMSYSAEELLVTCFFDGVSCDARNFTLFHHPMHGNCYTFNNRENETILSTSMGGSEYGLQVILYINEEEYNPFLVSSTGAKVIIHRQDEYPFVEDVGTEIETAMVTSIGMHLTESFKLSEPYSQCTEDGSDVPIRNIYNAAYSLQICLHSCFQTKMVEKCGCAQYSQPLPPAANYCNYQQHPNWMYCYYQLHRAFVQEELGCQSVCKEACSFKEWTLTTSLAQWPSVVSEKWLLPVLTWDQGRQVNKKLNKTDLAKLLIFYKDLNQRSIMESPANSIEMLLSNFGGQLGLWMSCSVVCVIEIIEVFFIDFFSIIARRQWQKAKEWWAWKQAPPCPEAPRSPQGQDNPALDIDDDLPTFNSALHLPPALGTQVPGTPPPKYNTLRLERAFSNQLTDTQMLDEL
Method: Macroscopic Sodium Ion Currents were derived from human lung epithelian cells A549 in the “whole cell” configuration by means of the “Patch-clamp” technique (Hamill et al, Pflugers Arch. 1981, 391(2):85-100, 1981). For the currents in the “whole cell” configuration the following bath- and electrode solutions were used:
Bath solution: 135 mM sodium methansulfonate, 10 mM NaCl, 2.7 mM KCl, 1.8 mM CaCl2, 2 mM MgCl2, 5.5 mM glucose, and 10 mM HEPES, pH 7.4.
Electrode solution: 120 mM potassium methansulfonate, 15 mM KCl, 6 mM NaCl, 1 mM Mg2ATP, 2 mM Na3ATP, 10 mM HEPES, and 0.5 mM EGTA (pH 7.2).
Cover glasses with thereon cultivated cells were transferred into a 1 ml containing trial bath, fixed onto the microscope table (Axiovert 100, 400-fold enlargement) and the cells were superfunded with the above described bath solution. Subsequent from an appropriate cell (sticking on the cover glass) the current was deduced. […] On receipt of a “Gigaohm-Seal” a defined membrane hold potential was created via a preamplifier (CV-4 Headstag, Axon Instruments) and amplifier (Axopatch 1D, Axon Instr.) and the current which thereby flows through the ion channels is measured.
That protocol was done before (control) and after addition of the cyclic proteins. The thus obtained currents were recorded and analyzed by means of the program PCLAMP 6.0. […]

[2] = Stability of the aqueous solution before inhalation (visual inspection, reverse HPLC); type: physicochemical
Method: For that reason the stability of an aqueous solution was investigated exemplarily. The ready to use-solution therefore was stored either in a syringe commonly used in laboratory, at 2 to 8° C. for 7 days, or in a container of a nebulizer at 25° C. for 24 hours. […] The methods used therefore were analytical methods commonly used in laboratory, as for example the visual inspection, as well as analysis by means of reverse HPLC.

[3] = laboratory syringe, 2 to 8° C., T = 0 to 7 days
[4] = storage container of a nebulizer, 25° C., T = 0 to 24 hours

| Compound | biological activity (in words) ([1]; amilorid-sensitive sodium current) | EC50 (activity on cellular amilorid-sensitive sodium ion current) ([1]; whole cell patch clamp) | Purity of aqueous solution (stability study) ([2]; laboratory syringe, 2 to 8° C., T = 0) [%] | Amount/contents of aqueous solution [2, 3] [mg/mL] | Appearance of aqueous solution [2, 3] | Purity of aqueous solution (stability study) ([2]; laboratory syringe, 2 to 8° C., T = 7 days) [%] | Purity of aqueous solution (stability study) ([2]; storage container of a nebulizer, 25° C., T = 0) [%] | Amount/contents of aqueous solution [2, 4] [mg/mL] | Appearance of aqueous solution [2, 4] | Purity of aqueous solution (stability study) ([2]; storage container of a nebulizer, 25° C., T = 24 hours) [%] |
| --- | --- | --- | --- | --- | --- | --- | --- | --- | --- | --- |
| Cyclo(CGQREAPAGAAAKPWYC) (disulfide 1-17) [SEQ ID NO: 7, reference compound] | biologically inactive; also recorded: not active | no activity |  |  |  |  |  |  |  |  |
| C[C@@H]1NC(=O)CNC(=O)[C@H](CCC(=O)O)NC(=O)[C@@H]2CCCN2C(=O)[C@H]([C@@H](C)O)NC(=O)[C@H](CCC(=O)O)NC(=O)[C@H](CCCNC(=N)N)NC(=O)[C@H](CCC(N)=O)NC(=O)CNC(=O)[C@@H](N)CSSC[C@@H](C(=O)O)NC(=O)[C@H](Cc2ccc(O)cc2)NC(=O)[C@H](Cc2c[nH]c3ccccc23)NC(=O)[C@@H]2CCCN2C(=O)[C@H](CCCCN)NC(=O)[C@H](C)NC(=O)[C@H](CCC(=O)O)NC1=O [SEQ ID NO: 1] |  |  | 96.3 | 25 | clear solution | 96.2 | 96.6 | 25 | clear solution | 96.5 |
